This note sets out measurements from patent publication EP0652009A1, “Identification and use of protease inhibitors” (ELI LILLY AND COMPANY, priority 1993, dated 1995).

In this test the target is Cathepsin D (Homo sapiens, UniProt P07339). The experiment in a line: Assay 3: cathepsin D inhibition activity (non-cellular assay, chromogenic substrate). Further details: Frozen human placental tissue was thawed and homogenized; from tissue; host or cells: human placenta. Particulars: cathepsin D from human placental tissue; for Ki: chromogenic substrate, pH 3.7, 37°C; for inhibition at 4 µM: 4 µM test compound, inhibition of initial rate relative to control, read-out: % inhibition at 4µ M. The format is biochemical. Here is the method: A third non-cellular assay for determining in vitro aspartyl protease inhibitory activity is generally described in Jupp, R.A. et al., (1990) Biochem. J., 265:871-878 and Rao et al., J. Med. Chem. (1993), in press. The assay is carried out by incubating a test compound with a suitable aspartyl protease, such as cathepsin D, in the presence of a chromogenic substrate. The inhibition constant, Ki, value may then be determined by quantifying the competitive inhibition of the hydrolysis of the chromogenic substrate. A variety of chromogenic substrates that are useful for assaying aspartyl protease activity are discussed in Dunn, et al., (1986) Biochem. J., 237:899-906. A preferred chromogenic substrate for a cathepsin D assay is disclosed in Scarborough, P.E. et al., Protein Science, (1993), 2:264-276.
Chain of Cathepsin D (P07339 169-412 limits assumed): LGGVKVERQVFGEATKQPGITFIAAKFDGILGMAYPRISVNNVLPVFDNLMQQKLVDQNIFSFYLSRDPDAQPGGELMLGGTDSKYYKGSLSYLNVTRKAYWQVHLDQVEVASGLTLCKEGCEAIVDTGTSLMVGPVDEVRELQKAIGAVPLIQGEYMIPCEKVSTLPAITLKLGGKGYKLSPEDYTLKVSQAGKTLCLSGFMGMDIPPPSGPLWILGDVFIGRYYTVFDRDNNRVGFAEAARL
Chain of Cathepsin D (P07339 65-162 limits assumed): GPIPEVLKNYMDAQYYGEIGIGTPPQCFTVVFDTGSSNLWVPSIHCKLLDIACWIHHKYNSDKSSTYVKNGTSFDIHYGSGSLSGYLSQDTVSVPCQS
Concentrations of substrate solutions and cleavage products may be verified using amino acid analysis. The enzyme preparations may be titrated with a tightly binding inhibitor to quantitate the active concentration of the enzyme. Enzyme concentrations are typically in the range of from 1-6 nM. Stock solutions of the test compound are prepared at concentrations ranging from 1.0 to 5.0 mg/mL, and then 50-100 µL portions of these stock solutions may be further diluted to a concentration in the range of 5 to 300 µM for rate determinations.
[…] Then, the test compounds are assayed over a concentration range of, for example, 5 to 300 µM for rate determinations.
A decrease in absorbance in the range of 284-324 nm may be monitored using a spectrophotometer. Absorbance readings are typically taken at various timepoints. The initial velocities are then plotted versus the initial substrate concentration. […] Estimates of Ki may then be determined using the Dixon construction. Dixon, M., (1953) Biochem J., 55:170-171.
If the ratio of the total active enzyme concentration to the estimated Ki value ([E]t/Ki) is less than 0.2, then the precise Ki value may be computed by using a non-linear curve fitting program based on the equation: v= Vmax [S]/[S] + Km (1 + [I]/Ki ) [formula] where v is the initial rate, [S] is the initial substrate concentration, [I] is the inhibitor concentration and Km and Ki are defined above. […] P.J.F., (1972) Biochem J., 127:321-333. This Assay is exemplfied in Assay 3.
The homogenate was centrifuged at 10,000 rpm for 30 minutes in a Sorvall GSA rotor. The supernatant was adjusted to pH 3.7 using 5.7N HCl and then sodium acetate was added to a concentration of 0.1M. The resultant mixture was incubated for 30 minutes at 0°C, resulting in the formation of a precipitate. This precipitate was removed by centrifugation (30 minutes, 10,000 rpm). The acidic supernatent was applied to a chromatography column (pepstatinyl agarose equilibrated with 0.1M sodium acetate, pH 3.5, 0.1% Brij 35, and 1M NaCl), washed until the OD₂₈₀ of the effluent returned to baseline, and then eluted with 50mM Tris-HCl, pH 8.6, 0.1% Brij 35, and 1M NaCl. The eluent was dialyzed against 10mM sodium phosphate, pH 7.0, 0.1% Brij 35, and 0.1M NaCl, and then applied to a 1 mL DEAE-Sephacel column equilibrated with the same buffer. Cathepsin D was recovered in the breakthrough fraction.
The enzyme mixture (125 µL buffer (0.1M sodium formate at pH 3.7), 1 µL of a 1mM solution of test compound, 4 µL of DMSO, enzyme and water to provide a total volume of 230 µL) was vortexed and prewarmed for four minutes before the addition of the chromogenic substrate. After warming, the enzyme mixture was added to 20 µL of a […] dilution of substrate solution. A control reaction mixture was similarly prepared without the addition of the test compound. The percent of inhibition of the initial rate of reaction in the presence of a particular concentration of test compound (i.e. 4 µM) may be determined for the test compound by monitoring the reaction mixture in parallel to the control reaction. […]

Usually Ki stands for the dissociation constant of the complex between target and ligand, obtained from inhibition or displacement. Regarding `CC(C)C(NC(=O)OCc1ccccc1)C(=O)NC(Cc1ccccc1)C1OC1C(Cc1ccccc1)NC(=O)C(NC(=O)OCc1ccccc1)C(C)C` [Example 1, 1,6-Diphenyl-2(S);5(S)-di[N-[2(S)-N(benzyloxycarbonyl)amino-3-methyl-butanoyl]amino]-3,4-cis-epoxyhexane], affinity was put at a Ki of 1160 ± 260 nM.

For `CC[C@H](NC(=O)OCc1ccccc1)C(=O)N[C@@H](Cc1ccccc1)[C@@H]1O[C@@H]1[C@H](Cc1ccccc1)NC(=O)[C@H](CC)NC(=O)OCc1ccccc1` [Example 2, 1,6-Diphenyl-2(S);5(S)-di[N-[2(S)-N(benzyloxycarbonyl)aminobutanoyl]amino]-3,4-cis-epoxyhexane], the inhibitory constant (Ki) is 750 ± 140 nM.

Usually inhibition stands for the relative decrease from the control value, in per cent. Regarding `CC[C@H](C)[C@H](NC(=O)OCc1ccc2ccccc2n1)C(=O)N[C@@H](Cc1ccccc1)[C@@H]1O[C@@H]1[C@H](Cc1ccccc1)NC(=O)[C@@H](NC(=O)OCc1ccc2ccccc2n1)[C@@H](C)CC` [Example 3, 1,6-Diphenyl-2(S);5(S)-di[N-[2(S)-N[(quinolin-2-ylmethoxy)carbonyl]amino-3(S)-methylpentanoyl]amino]-3,4-cis-epoxyhexane], the inhibition at 4 µM was 40%.

Take `CCC(NC(=O)N(C)Cc1ccc2ccccc2n1)C(=O)NC(Cc1ccccc1)C1OC1C(Cc1ccccc1)NC(=O)C(CC)NC(=O)N(C)Cc1ccc2ccccc2n1` [Example 4, 1,6-Diphenyl-2(S);5(S)-di[N-[2(S)-N-[[N(methyl)-N(quinolin-2-ylmethyl)amino]carbonyl]aminobutanoyl]amino]-3,4-cis-epoxyhexane]: the Ki was 6200 nM.

With `CCC(C)C(NC(=O)N(C)Cc1ccc2ccccc2n1)C(=O)NC(Cc1ccccc1)C1OC1C(Cc1ccccc1)NC(=O)C(NC(=O)N(C)Cc1ccc2ccccc2n1)C(C)CC` [Example 5, 1,6-Diphenyl-2(S);5(S)-di[N-[2(S)-N[[N(methyl)-N(quinolin-2-ylmethyl)amino]carbonyl]amino-3(S)-methylpentanoyl]amino]-3,4-cis-epoxyhexane], the inhibition constant Ki came to 240 nM.

The compound `CC(C)(C)NC(=O)c1ccccc1CC(O)C(Cc1ccccc1)NC(=O)C(CC(N)=O)NC(=O)c1ccc2ccccc2n1` (stereo not drawn) [Example 6, [1S-(1R*,4R*,5S*)]-N-[1-(2-amino-2-oxoethyl)-2-oxo-3-aza-4-phenylmethyl-5-hydroxy-6-(2-(1-t-butylamino-1-oxomethyl)phenyl)hexyl]-2-quinolinyl carboxamide] came in with an inhibition constant Ki of 1800 ± 260 nM.

Compound `Cc1ccc(CC(O)C(Cc2ccccc2)NC(=O)C(CC(N)=O)NC(=O)c2ccc3ccccc3n2)c(C(=O)NC(C)(C)C)c1` (stereo not drawn) [Example 7, [1S-(1R*,4R*,5S*)]-N-[1-(2-Amino-2-oxoethyl)-2-oxo-3-aza-4-phenylmethyl-5-hydroxy-6-(2-(1-t-butylamino-1-oxomethyl)-4-methylphenyl)hexyl]-2-quinolinyl carboxamide] yielded a Ki of 420 ± 60 nM.

With `Cc1ccc2ccc(C(=O)N[C@@H](CC(N)=O)C(=O)N[C@@H](Cc3ccccc3)[C@H](O)Cc3ccccc3C(=O)NC(C)(C)C)nc2c1` [Example 8, [lS-(1R*,4R*,5S*)]-N-(1-(2-amino-2-oxoethyl)-2-oxo-3-aza-4-phenylmethyl-5-hydroxy-6-(2-(1-t-butylamino-1-oxomethyl)phenyl)hexyl)-7-methylquinolin-2-yl carboxamide], the affinity, expressed as Ki, was 1170 nM.

Compound `Cc1cc(C(=O)N[C@@H](CC(N)=O)C(=O)N[C@@H](Cc2ccccc2)[C@H](O)Cc2ccccc2C(=O)NC(C)(C)C)nc2ccccc12` [Example 10, [1S-(1R*,4R*,5S*)]-N-(1-(2-Amino-2-oxoethyl)-2-oxo-3-aza-4-phenylmethyl-5-hydroxy-6-(2-(1-t-butylamino-1-oxomethyl)phenyl)hexyl)-4-methylquinolin-2-yl carboxamide] displayed an inhibition constant Ki of 5510 nM.

For the compound `CC(C)(C)NC(=O)c1sccc1C[C@@H](O)[C@H](Cc1ccccc1)NC(=O)[C@H](CC(N)=O)NC(=O)c1ccc2ccccc2n1` [Example 14, [1S-(1R*,4R*,5S*)]-N-(1-(2-Amino-2-oxoethyl)-2-oxo-3-aza-4-phenylmethyl-5-hydroxy-6-(2-(1-t-butylamino-1-oxomethyl)thien-3-yl)hexyl)-2-quinolinyl carboxamide], the inhibition at 4 µM stood at 22%.

Regarding `CC(C)(C)NC(=O)c1ccccc1C[C@@H](O)[C@H](Cc1ccccc1)NC(=O)[C@H](CC(=O)O)NC(=O)c1ccc2ccccc2n1` [Example 15, [1S-(1R*,R*,5S*)]-N-(1-(2-Hydroxy-2-oxoethyl)-2-oxo-3-aza-4-phenylmethyl-5-hydroxy-6-(2-(1-t-butylamino-1-oxomethyl)phenyl)hexyl)-2-quinolinyl carboxamide], the inhibition at 4 µM stood at 49%.

Turning to `CC(C)(C)NC(=O)c1ccccc1C[C@@H](O)[C@H](Cc1ccccc1)NC(=O)[C@H](CC(=O)NCc1ccccn1)NC(=O)c1ccc2ccccc2n1` [Example 16, [1S-(1R*,4R*,5S*)]-N-(1-(2-(N-2-Pyridylmethyl)amino)-2-oxoethyl]-2-oxo-3-aza-4-phenylmethyl-5-hydroxy-6-(2-(1-t-butylamino-1-oxomethyl)phenyl)hexyl)-2-quinolinyl carboxamide], the inhibition at 4 µM was determined as 36%.

Compound `CC(C)(C)NC(=O)c1ccccc1CC(O)C(Cc1ccccc1)NC(=O)C(CC(=O)NCc1ncc[nH]1)NC(=O)c1ccc2ccccc2n1` (stereo not drawn) [Example 17, [1S-(1R*,4R*,5S*)]-N-(1-(2-(N-2-Imidazolylmethyl)amino)-2-oxoethyl)-2-oxo-3-aza-4-phenylmethyl-5-hydroxy-6-(2-(1-t-butylamino-1-oxomethyl)phenyl)hexyl)-2-quinolinyl carboxamide] yielded an inhibition constant (Ki) of 2300 ± 200 nM.

Regarding `CC(C)(C)NC(=O)c1ccccc1C[C@@H](O)[C@H](Cc1ccccc1)NC(=O)[C@H](CC(=O)NCc1nc2ccccc2[nH]1)NC(=O)c1ccc2ccccc2n1` [Example 18, [1S-(1R*,4R*,5S*)]-N-(1-(2-(N-2-Benzimidazolylmethyl)amino)-2-oxoethyl)-2-oxo-3-aza-4-phenylmethyl-5-hydroxy-6-(2-(1-t-butylamino-1-oxomethyl)phenyl)hexyl)-2-quinolinyl carboxamide], the Ki was determined as 2200 ± 200 nM.

Take `CC(C)(C)NC(=O)c1ccccc1C[C@@H](O)[C@H](Cc1ccccc1)NC(=O)[C@H](CC(N)=O)NC(=O)c1cc(Cl)c2ccccc2n1` [Example 19, [1S-(1R*,4R*,5S*)]-N-(1-(2-Amino-2-oxoethyl)-2-oxo-3-aza-4-phenylmethyl-5-hydroxy-6-(2-(1-t-butylamino-1-oxomethyl)phenyl)hexyl)-4-chloroquinolin-2-yl carboxamide]: the inhibition at 4 µM worked out at 48%.

`CC(C)(C)NC(=O)c1ccccc1CC(O)C(Cc1ccccc1)NC(=O)C(CC(N)=O)NC(=O)c1ccc2cccc(C(F)(F)F)c2n1` (stereo not drawn) [Example 22, [1S-(1R*,4R*,5S*)]-N-(1-(2-Amino-2-oxoethyl)-2-oxo-3-aza-4-phenylmethyl-5-hydroxy-6-(2-(1-t-butylamino-1-oxomethyl)phenyl)hexyl)-8-trifluoromethyl-quinolin-2-yl carboxamide]: the inhibitory constant (Ki) turned out to be 900 ± 100 nM.

Regarding `CC(C)(C)NC(=O)c1ccccc1CC(O)C(Cc1ccccc1)NC(=O)C(CC(N)=O)NC(=O)C(Cc1cccc2ccccc12)NC(=O)OC(C)(C)C` (stereo not drawn) [Example 25, [2R-(2R*,3S*,6S*,9R*)]-N-t-Butyl-2-[2-hydroxy-3-phenylmethyl-4,7-diaza-5,8-dioxo-6-(2-amino-2-oxoethyl)-9-N(t-butoxycarbonyl)amino-10-naphth-1-yl]decyl benzamide], the inhibitory constant (Ki) came out at 1440 ± 260 nM.
